Measured values: ChEMBL document CHEMBL1146036, “Structural determinants of opioid activity in derivatives of 14-aminomorphinones: effect of substitution in the aromatic ring of cinnamoylaminomorphinones and codeinones” (J Med Chem, 2006)

Columns and labels:
[1] = target: T1, Delta-type opioid receptor (Homo sapiens, UniProt P41143); assay: Stimulation of [35S]GTPgammaS binding to human recombinant DOR relative to DPDPE; type: functional
[2] = target: T2, Kappa-type opioid receptor (Homo sapiens, UniProt P41145); assay: biochemical; type: cell-based, CHO
T2 sequence (P41145 whole entry): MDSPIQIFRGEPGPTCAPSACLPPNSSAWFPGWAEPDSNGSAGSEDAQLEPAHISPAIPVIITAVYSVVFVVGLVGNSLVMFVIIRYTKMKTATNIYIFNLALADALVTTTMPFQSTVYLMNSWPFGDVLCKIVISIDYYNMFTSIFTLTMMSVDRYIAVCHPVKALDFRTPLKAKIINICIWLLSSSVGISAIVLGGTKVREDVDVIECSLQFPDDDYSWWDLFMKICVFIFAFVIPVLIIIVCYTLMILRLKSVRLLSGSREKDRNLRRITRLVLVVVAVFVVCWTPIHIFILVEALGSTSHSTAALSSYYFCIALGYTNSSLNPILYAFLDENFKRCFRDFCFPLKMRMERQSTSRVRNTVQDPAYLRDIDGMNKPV
Description: Displacement of [3H]U-69593 from human recombinant KOR expressed in CHO cells

[3] = target: T2, Kappa-type opioid receptor; assay: Stimulation of [35S]GTP-gamma-S binding to human recombinant KOR; type: functional
Mu-type opioid receptor [4] = target: T3, Mu-type opioid receptor (Homo sapiens, UniProt P35372); assay: Displacement of [3H]DAMGO from human recombinant MOR expressed in CHO cells; type: cell-based
T3 sequence (P35372 whole entry): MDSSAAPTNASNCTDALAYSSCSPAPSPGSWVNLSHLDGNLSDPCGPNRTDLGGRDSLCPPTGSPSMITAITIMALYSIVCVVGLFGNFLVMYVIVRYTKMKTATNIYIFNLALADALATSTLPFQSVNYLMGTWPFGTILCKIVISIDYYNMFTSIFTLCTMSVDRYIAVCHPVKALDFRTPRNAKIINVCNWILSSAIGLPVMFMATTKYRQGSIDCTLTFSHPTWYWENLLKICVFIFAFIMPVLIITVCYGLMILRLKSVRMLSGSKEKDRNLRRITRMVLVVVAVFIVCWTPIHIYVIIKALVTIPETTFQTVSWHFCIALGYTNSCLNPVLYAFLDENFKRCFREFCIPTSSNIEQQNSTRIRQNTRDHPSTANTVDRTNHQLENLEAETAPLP

[5] = target: T1, Delta-type opioid receptor; assay: Stimulation of [35S]GTP-gamma-S binding to human recombinant DOR; type: functional
Mus musculus [6] = assay: Agonist activity in sc dosed mouse by tail flick assay; type: functional
[7] = target: T1, Delta-type opioid receptor; assay: Displacement of [3H]Cl-DPDPE from human recombinant DOR expressed in CHO cells; type: cell-based
Mus musculus [8] = assay: Agonist activity in sc dosed mouse by phenylquinone abdominal stretching assay; type: functional; settings: Abdomen
Mu-type opioid receptor [9] = target: T3, Mu-type opioid receptor; assay: Stimulation of [35S]GTPgammaS binding to human recombinant MOR; type: functional
Mus musculus [10] = assay: Antagonist activity against morphine-induced antinociception in sc dosed mouse by tail flick assay; type: functional
Mus musculus [11] = assay: Antagonist activity against morphine-induced antinociception in sc dosed mouse by hot water tail withdrawal assay at 32 mg/kg, sc; type: functional; design: scale not given: the % may be the effect or the level left; settings: route subcutaneous
[12] = target: Kappa-type opioid receptor (Cavia porcellus, UniProt P41144); assay: Binding affinity to KOR in guinea pig brain membrane; type: cell membranes
Sequence of Kappa-type opioid receptor (Cavia porcellus, UniProt P41144) (P41144 whole entry): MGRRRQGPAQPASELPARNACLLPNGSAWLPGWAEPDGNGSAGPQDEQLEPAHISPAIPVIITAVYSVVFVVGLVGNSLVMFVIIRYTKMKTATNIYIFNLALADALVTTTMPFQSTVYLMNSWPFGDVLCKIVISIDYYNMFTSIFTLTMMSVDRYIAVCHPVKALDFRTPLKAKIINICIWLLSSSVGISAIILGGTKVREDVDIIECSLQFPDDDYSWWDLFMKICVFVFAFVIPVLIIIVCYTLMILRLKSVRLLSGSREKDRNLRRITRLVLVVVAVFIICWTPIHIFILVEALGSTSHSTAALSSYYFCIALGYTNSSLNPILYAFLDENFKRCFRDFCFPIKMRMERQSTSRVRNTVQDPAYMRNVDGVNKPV

Mus musculus [13] = assay: Agonist activity in sc dosed mouse by hot water tail withdrawal assay at 10 mg/kg, sc; type: functional; settings: route subcutaneous
Mu-type opioid receptor [14] = target: Mu-type opioid receptor (Cavia porcellus, UniProt P97266); assay: Binding affinity to MOR in guinea pig brain membrane; type: cell membranes
Sequence of Mu-type opioid receptor (Cavia porcellus, UniProt P97266) (P97266 whole entry): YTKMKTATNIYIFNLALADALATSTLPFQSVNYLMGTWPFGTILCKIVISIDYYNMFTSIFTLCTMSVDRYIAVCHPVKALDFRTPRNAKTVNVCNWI

Mus musculus [15] = assay: Agonist activity in mouse by hot water tail withdrawal assay at 32 mg/kg, sc; type: functional; settings: route subcutaneous
Mus musculus [16] = assay: Agonist activity in mouse by phenylquinone abdominal stretching assay at 0.3 mg/kg, sc; type: functional; settings: Abdomen, route subcutaneous
[17] = target: T1, Delta-type opioid receptor; settings: CHO
Description: Reversal of stimulation of [35S]GTP-gamma-S binding to human recombinant DOR transfected in CHO cells relative to DPDPE

Mus musculus [18] = assay: Agonist activity in sc dosed mouse by hot water tail withdrawal assay at 1 mg/kg, sc; type: functional; settings: route subcutaneous
Mus musculus [19] = assay: Agonist activity in mouse by phenylquinone abdominal stretching assay at 30 mg/kg, sc; type: functional; settings: Abdomen, route subcutaneous
Mu-type opioid receptor [20] = target: T3, Mu-type opioid receptor; assay: Reversal of stimulation of [35S]GTP-gamma-S binding to human recombinant MOR transfected in CHO cells relative to DAMGO; type: functional, cell-based
[21] = target: T2, Kappa-type opioid receptor; settings: CHO
Description: Reversal of stimulation of [35S]GTPgammaS binding to human recombinant KOR transfected in CHO cells relative to U69593

Mus musculus [22] = assay: Agonist activity in mouse by phenylquinone abdominal stretching assay at 1 mg/kg, sc; type: functional; settings: Abdomen, route subcutaneous
Mu-type opioid receptor [23] = target: T3, Mu-type opioid receptor; assay: Activity at human recombinant MOR transfected in CHO cells assessed as reversal of stimulation of [35S]GTP-gamma-S binding; type: functional, cell-based; settings: filed as antagonist
[24] = target: T2, Kappa-type opioid receptor; assay: Activity at human recombinant KOR transfected in CHO cells assessed as reversal of stimulation of [35S]GTPgammaS binding; type: functional, cell-based; settings: filed as antagonist
[25] = target: T1, Delta-type opioid receptor; assay: Activity at human recombinant DOR transfected in CHO cells assessed as reversal of stimulation of [35S]GTP-gamma-S binding; type: functional, cell-based
Mus musculus [26] = assay: Antagonist activity against morphine-induced antinociception in sc dosed mouse by tail flick assay at 3 mg/kg, sc; type: functional; settings: route subcutaneous

T1 sequence (P41143 whole entry): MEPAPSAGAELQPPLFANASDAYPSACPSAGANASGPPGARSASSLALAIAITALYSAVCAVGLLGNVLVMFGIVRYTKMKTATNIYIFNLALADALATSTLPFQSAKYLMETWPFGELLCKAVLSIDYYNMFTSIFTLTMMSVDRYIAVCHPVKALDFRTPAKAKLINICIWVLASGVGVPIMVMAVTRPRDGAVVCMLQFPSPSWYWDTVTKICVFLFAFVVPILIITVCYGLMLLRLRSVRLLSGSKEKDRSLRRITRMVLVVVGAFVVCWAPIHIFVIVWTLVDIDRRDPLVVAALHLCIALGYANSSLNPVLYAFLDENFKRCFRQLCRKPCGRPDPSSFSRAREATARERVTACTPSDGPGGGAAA

Structure (SMILES)	Activity [1] [%]	Ki [2] [nM]	EC50 [3] [nM]	Ki (Mu-type opioid receptor [4]) [nM]	EC50 [5] [nM]	ED50 (Mus musculus [6]) [mg/kg]	Ki [7] [nM]	ED50 (Mus musculus [8]) [mg/kg]	EC50 (Mu-type opioid receptor [9]) [nM]	AD50 (Mus musculus [10]) [mg/kg]	Activity (Mus musculus [11]) [%]	Activity (Mus musculus [15]) [%]	also measured
Cc1ccccc1/C=C/C(=O)N[C@@]12CCC(=O)[C@@H]3Oc4c(O)ccc5c4[C@@]31CCN(C)[C@@H]2C5	71	0.23	0.2	0.21	0.4	0.08	0.11	0.03	0.04	>30			
COc1ccc2c3c1O[C@H]1C(=O)CC[C@@]4(NC(=O)/C=C/c5ccccc5Cl)[C@@H](C2)N(CC2CC2)CC[C@]314	36		9		17.5				3.8		10		Ki [12]: 2.4 nM; Activity (Mus musculus [13]): >90%; Ki (Mu-type opioid receptor [14]): 0.6 nM
COc1ccc2c3c1O[C@H]1C(=O)CC[C@@]4(NC(=O)/C=C/c5ccccc5[N+](=O)[O-])[C@@H](C2)N(CC2CC2)CC[C@]314												40	
O=C(/C=C/c1ccccc1)N[C@@]12CCC(=O)[C@@H]3Oc4c(O)ccc5c4[C@@]31CCN(CC1CC1)[C@@H]2C5						> 30				1.3	40	0	inhibition in vivo at 0.3 mg/kg (Mus musculus [16]): 66%
COc1ccc2c3c1O[C@H]1C(=O)CC[C@@]4(NC(=O)/C=C/c5ccc(Cl)cc5)[C@@H](C2)N(CC2CC2)CC[C@]314						> 30	4.8	0.2		>6	65	0	Ke [17]: 7.2 nM
COc1ccc2c3c1O[C@H]1C(=O)CC[C@@]4(NC(=O)/C=C/c5ccccc5C)[C@@H](C2)N(CC2CC2)CC[C@]314	39		1.8		20.9	0.03		0.03	2.6	>30	10		Ki [12]: 2.1 nM; Activity (Mus musculus [18]): >90%; Ki (Mu-type opioid receptor [14]): 0.2 nM
COc1ccc2c3c1O[C@H]1C(=O)CC[C@@]4(NC(=O)/C=C/c5ccc(C)cc5)[C@@H](C2)N(CC2CC2)CC[C@]314						> 30		0.1		5.7	40	10	
CN1CC[C@]23c4c5ccc(O)c4O[C@H]2C(=O)C=C[C@@]3(NC(=O)/C=C/c2ccc(Cl)cc2)[C@H]1C5						0.5				>30			
O=C(/C=C/c1ccc([N+](=O)[O-])cc1)N[C@@]12CCC(=O)[C@@H]3Oc4c(O)ccc5c4[C@@]31CCN(CC1CC1)[C@@H]2C5											>90	40	
O=C(/C=C/c1ccc(Cl)cc1)N[C@@]12CCC(=O)[C@@H]3Oc4c(O)ccc5c4[C@@]31CCN(CC1CC1)[C@@H]2C5 [CLOCINNAMOX]		1.4		2.98		> 30	2.7			0.12	>90	0	inhibition in vivo at 30 mg/kg (Mus musculus [19]): 69%; Ke (Mu-type opioid receptor [20]): 0.53 nM; Ke [17]: 0.19 nM; Ke [21]: 0.1 nM
COc1ccc2c3c1O[C@H]1C(=O)CC[C@@]4(NC(=O)/C=C/c5ccccc5C)[C@@H](C2)N(C)CC[C@]314	108	2.3	5.6	0.4	4.6		0.42		0.5				
COc1ccc2c3c1O[C@H]1C(=O)CC[C@@]4(NC(=O)/C=C/c5ccc([N+](=O)[O-])cc5)[C@@H](C2)N(CC2CC2)CC[C@]314											40		Activity (Mus musculus [13]): >90%
O=C(/C=C/c1ccccc1Cl)N[C@@]12CCC(=O)[C@@H]3Oc4c(O)ccc5c4[C@@]31CCN(CC1CC1)[C@@H]2C5		2.4		0.71			1.3				65	0	Ke (Mu-type opioid receptor [20]): 0.45 nM; Ke [17]: 0.67 nM; Ke [21]: 0.38 nM
COc1ccc2c3c1O[C@H]1C(=O)CC[C@@]4(NC(=O)/C=C/c5ccccc5)[C@@H](C2)N(CC2CC2)CC[C@]314											65	40	
CN1CC[C@]23c4c5cccc4O[C@H]2C(=O)CC[C@@]3(NC(=O)/C=C/c2ccccc2Cl)[C@H]1C5			0.1		0.1	0.12		0.04	0.04	>30			
COc1ccc2c3c1O[C@H]1C(=O)CC[C@@]4(NC(=O)/C=C/c5ccc(C)cc5)[C@@H](C2)N(C)CC[C@]314	86	9.9	84	0.49	76	0.06	2.9	0.4	2.5	>30			
Cc1ccc(/C=C/C(=O)N[C@@]23CCC(=O)[C@@H]4Oc5c(O)ccc6c5[C@@]42CCN(C)[C@@H]3C6)cc1		1.5		0.34		> 30	4			0.6			inhibition in vivo at 1 mg/kg (Mus musculus [22]): 57%; Ke (Mu-type opioid receptor [20]): 0.3 nM; Ke [17]: 2.2 nM; Activity (Mu-type opioid receptor [23]): Antagonist; Activity [24]: Antagonist; Activity ([25]; filed as antagonist): Antagonist; Ke [21]: 4.1 nM
Cc1ccc(CCC(=O)N[C@@]23CCC(=O)[C@@H]4Oc5c(O)ccc6c5[C@@]42CCN(C)[C@@H]3C6)cc1		0.57		0.35		0.5	1.25	0.09		>30			Ke (Mu-type opioid receptor [20]): 0.32 nM; Ke ([17]; filed as partial agonist): Partial agonist; Activity (Mu-type opioid receptor [23]): Antagonist; Activity [24]: Antagonist; Activity ([25]; filed as partial agonist): Partial agonist; Ke [21]: 4.9 nM
Cc1ccccc1/C=C/C(=O)N[C@@]12CCC(=O)[C@@H]3Oc4c(O)ccc5c4[C@@]31CCN(CC1CC1)[C@@H]2C5		1.5		0.72		> 30	1.25	3.17			65	0	Ke (Mu-type opioid receptor [20]): 0.29 nM; Ke [17]: 0.4 nM; inhibition in vivo at 3 mg/kg (Mus musculus [26]): 50%; Ke [21]: 0.16 nM
CN1CC[C@]23c4c5ccc(O)c4O[C@H]2C(=O)CC[C@@]3(NC(=O)/C=C/c2ccc([N+](=O)[O-])cc2)[C@H]1C5		5.5		0.2			0.54						Ke (Mu-type opioid receptor [20]): 0.13 nM; Ke [17]: 1.4 nM; Ke [21]: 3.3 nM
COc1ccc2c3c1O[C@H]1C(=O)CC[C@@]4(NC(=O)/C=C/c5ccccc5Cl)[C@@H](C2)N(C)CC[C@]314	110	2.5	8.5	0.68	2.2		0.58		0.5				
COc1ccc2c3c1O[C@H]1C(=O)CC[C@@]4(NC(=O)/C=C/c5ccc(Cl)cc5)[C@@H](C2)N(C)CC[C@]314	50			0.6	5	0.04	1	0.02	0.9	>30			
